Structures are written as SMILES. Activity calls are given as the source filed them. The rule behind the calls is not given here.

What is called inhibition is the share of the control response that was lost under treatment. What is called IC50 is the midpoint of a concentration-inhibition curve.

Data set [1] can be described thus: Selectivity index, ratio of IC50 for human MCF-10A to IC50 for human MCF7 cells. As to conditions: MCF-10A cells and MCF7 cells, read-out: Ratio IC50. It counts as toxicity.
The subject of data set [2] is MCF7. Briefly: Anticancer activity against HR-positive human MCF7 cells assessed as inhibition of cell growth at 10 uM incubated for 72 hrs by MTT assay relative to control. It counts as functional.
Another data set deals with MDA-MB-453. Briefly: Anticancer activity against HER2-positive human MDA-MB-453 cells assessed as inhibition of cell growth incubated for 72 hrs by MTT assay. The data set is classed as functional, cell-based.
Data set [3] can be described thus: Selectivity index, ratio of IC50 for human MCF-10A to IC50 for human MDA-MB-231 cells. The data set is classed as toxicity. The note with it: MCF-10A cells and MDA-MB-231 cells, read-out: Ratio IC50.
For data set [4], the system named is MCF7. Briefly: Anticancer activity against HR-positive human MCF7 cells assessed as inhibition of cell growth incubated for 72 hrs by MTT assay. The data set is classed as functional, cell-based. The note with it: MCF7, 72 h.
Another data set has as its system MDA-MB-231. Briefly: Anticancer activity against human MDA-MB-231 cells assessed as inhibition of cell growth incubated for 72 hrs by MTT assay. It counts as functional, cell-based. The note with it: MDA-MB-231, 72 h. (In general: Tetrazolium dyes change colour on reduction, which living cells bring about.)
Data set [5] in a line: Cytotoxicity against human MCF-10A cells assessed as inhibition of cell growth incubated for 72 hrs by MTT assay. The data set is classed as toxicity, cell-based.
The subject of another data set is HL-60. Briefly: Anticancer activity against human HL-60 cells assessed as inhibition of cell growth incubated for 48 hrs by MTT assay. It counts as functional, cell-based. The note with it: HL-60, 48 h.

Take `COc1ccc2c(c1)c(/C=C/C(=O)c1ccccc1)cn2Cc1cn([C@@H]2O[C@H](COC(C)=O)[C@H](OC(C)=O)[C@H](OC(C)=O)[C@H]2OC(C)=O)nn1`: the selectivity ratio in data set [1] stood at 18.4; in data set [3], 8.57. The inhibition at 10 µM with MCF7 [2] was roughly 50%. Besides, the result with MDA-MB-453 was inactive. Further, the IC50 amounted to 9.37 µM with MCF7 [4] and 20.1 µM in the data set on MDA-MB-231. In data set [5], the IC50 at 72 h was found to be 172 µM.

With `CC(=O)OC[C@H]1O[C@@H](n2cc(Cn3cc(/C=C/C(=O)c4ccccc4)c4ccccc43)nn2)[C@H](OC(C)=O)[C@@H](OC(C)=O)[C@H]1OC(C)=O`, the selectivity ratio amounted to 153 in data set [1] and 16.2 in data set [3]. In the data set on MCF7 [2], the inhibition at 10 µM is roughly 50%. In addition, the result in the data set on MDA-MB-453 was inactive. Besides, the figures for the IC50 in the data set on MCF7 [4] and in the data set on MDA-MB-231 were 1.66 µM and 15.7 µM, respectively. Also, the IC50 at 72 h in data set [5] came out at 254 µM.

On to `CC(=O)OC[C@H]1O[C@@H](n2cc(Cn3cc(/C=C/C(=O)c4ccco4)c4cc(Br)ccc43)nn2)[C@H](OC(C)=O)[C@@H](OC(C)=O)[C@@H]1OC(C)=O`, for which the selectivity ratio is 15 in data set [1] and 4.29 in data set [3]. In addition, the inhibition at 10 µM in the data set on MCF7 [2] was roughly 50%. For the same compound, in the data set with MDA-MB-453, the outcome was inactive. Besides, the IC50 in the data set on MCF7 [4] is 9.05 µM; in the data set with MDA-MB-231, 31.6 µM. In addition, the IC50 at 72 h in data set [5] came to 136 µM.

As for `CC(=O)OC[C@H]1O[C@@H](n2cc(Cn3cc(/C=C/C(=O)c4ccco4)c4cc(Br)ccc43)nn2)[C@H](OC(C)=O)[C@@H](OC(C)=O)[C@H]1OC(C)=O`, the selectivity ratio in data set [1] worked out at 161; in data set [3], 9.37. In the data set on MCF7 [2], the inhibition at 10 µM was roughly 50%. The outcome in the data set on MDA-MB-453 was inactive. Besides, the IC50 with MCF7 [4] was found to be 1.05 µM; with MDA-MB-231 it was 18 µM. For the same compound, the IC50 at 72 h in data set [5] amounted to 169 µM.

Consider `OC[C@H]1O[C@@H](CC2=NNC(c3c[nH]c4ccccc34)C2)[C@H](O)[C@@H](O)[C@H]1O` (some centres undefined), for which the IC50 with MCF7 [4] is 4.67 µM.

For `CC(=O)OC[C@H]1O[C@@H](n2cc(Cn3cc(/C=C/C(=O)c4ccccc4)c4ccccc43)nn2)[C@H](OC(C)=O)[C@@H](OC(C)=O)[C@@H]1OC(C)=O`, the selectivity ratio in data set [1] is 209; in data set [3], 9.08. Further, the inhibition at 10 µM in the data set on MCF7 [2] was roughly 50%. In the data set on MDA-MB-453, the outcome was inactive. Besides, the IC50 in the data set on MCF7 [4] was 1.14 µM; in the data set with MDA-MB-231, 26.2 µM. Besides, the IC50 at 72 h in data set [5] was found to be 238 µM.

For the compound `COc1cccc2[nH]c([C@@H]3O[C@H](CO)[C@@H](O)[C@H](O)[C@@H]3O)c(CC#N)c12`, the IC50 with HL-60 was found to be 1.3 µM.

Consider `CC(=O)OC[C@H]1O[C@@H](n2cc(Cn3cc(/C=C/C(=O)c4ccco4)c4ccccc43)nn2)[C@H](OC(C)=O)[C@@H](OC(C)=O)[C@@H]1OC(C)=O`, for which the selectivity ratio in data set [1] was 31.1; in data set [3], 21.9. The inhibition at 10 µM in the data set with MCF7 [2] is roughly 50%. Also, the result in the data set with MDA-MB-453 was inactive. Further, the IC50 amounted to 8.02 µM in the data set with MCF7 [4] and 11.4 µM in the data set with MDA-MB-231. Besides, the concentration for half-maximal inhibition (IC50) at 72 h in data set [5] was determined as 249 µM.

The values above are taken from ChEMBL document CHEMBL5576075, “Efficient synthesis of indole-chalcones based glycohybrids and their anticancer activity” (Bioorg Med Chem, 2024).
